Here are results for two compounds from patent publication US20220233550A1, “PARP INHIBITOR PELLET PREPARATION AND PREPARATION PROCESS THEREFOR” (BEIGENE, LTD., priority 2019, published 2022).

Series [1] is described as follows: Fluidity, judged from electron microscope images. The series is classed as physicochemical. The note with it: electron microscope image, FIG. 1 / FIG. 2. From the text: FIG. 1 of the description is an electron microscope image of the drug substance Pamiparib, and since the drug substance BGB290 contains crystal water, is very easily agglomerated, and has a poor fluidity, which is not conducive to capsule filling, thereby affecting the industrialized mass production of a formulation. In addition, FIG. 2 of the description is an electron microscope image of the pellets of Example 1. It can be seen from the image that the pellets are round in shape, can be evenly spread under the field of view of an electron microscope, and has a good fluidity. It is sufficient to fulfil the filling of the capsule.

Series [2] relates to BRCA variant in vitro xenograft model. The note with it: vs Olaparib; cited from earlier work.
The conditions of series [3]: rodents; cited from earlier work.
The subject of a further series is CYP. The note with it: cited from earlier work.
The conditions of series [4]: cited from earlier work.
In a further series the test system is PARP. The note with it: compared with Olaparib and other PARP inhibitors (such as Veliparib); cited from earlier work.
The next series has as its system PARP-1/2. The note with it: cited from earlier work.
For series [5] the following is noted: sesquihydrate; cited from earlier work.
Series [6] deals with cell lines with BRCA1/2 mutations or other HR defects. The note with it: cited from earlier work.

On to `C[C@]12CCCN1CC1=NNC(=O)c3cc(F)cc4[nH]c2c1c34` [Pamiparib, (R)-2-fluoro-10a-methyl-7,8,9,10,10a,11-hexahydro-5,6,7a,11-tetraazacyclohepta[def]cyclopenta[a]fluoren-4(5H)-one sesquihydrate], for which the fluidity result in series [1] was “poor fluidity”. Besides, the “activity relative to Olaparib” value in [2] is recorded as “about 16 times”. Besides, in series [3], the tolerance entry is listed as “good tolerance” and the treatment window result is recorded as “about 10 folds”. The CYP inhibitory activity result in the series on CYP is recorded as “no CYP inhibitory activity”. The brain permeability result in series [4] is “significant brain permeability”. Moreover, the DNA capture activity entry in the series with PARP is “stronger DNA capture activity”. Further, the PARP1/2 selectivity result in the series with PARP-1/2 (compared with Olaparib and other PARP inhibitors (such as Veliparib)) was “better PARP1/2 selectivity”. Besides, the chemical stability result in series [5] is listed as “excellent chemical stability”.
As to `C[C@]12CCCN1CC1=NNC(=O)c3cc(F)cc4[nH]c2c1c34` [drawing 1, (R)-2-fluoro-10a-methyl-7,8,9,10,10a,11-hexahydro-5,6,7a,11-tetraazacyclohepta[def]cyclopenta[a]fluoren-4(5H)-one], in the series with PARP-1/2 (free compound of WO 2013/097225A1), the “selectivity for PARP-1/2” value is on record as “high selectivity for PARP-1/2”. The inhibition of proliferation result in series [6] is given as “can effectively inhibit the proliferation”.
